# Assay results from patent publication US9688989B2, “H4 receptor inhibitors for treating tinnitus” (SENSORION, priority 2012, dated 2017).
# Experiments:
# [1] = system: tinnitus induced by sodium salicylate or noise exposure; test: Gap-Prepulse Inhibition of Acoustic Startle (GPIAS) behavioral model of tinnitus; format: in vivo, adult rats; conditions: rats, single i.p. administration, versus pre-treatment or vehicle
# Description: The aim of these in vivo tests is to measure the efficacy of H4R antagonists to decrease (transient and permanent) tinnitus symptoms induced either by sodium salicylate or by high level noise exposure. Evaluation of efficacy is performed in adult rats using the tinnitus test developed by Turner et al. 2006: the Gap-Prepulse Inhibition of Acoustic Startle (GPIAS) behavioral model. This model uses a gap in a constant acoustic background as a pre-stimulus that reduces the acoustic startle reflex amplitude. Rats perceiving tinnitus in a specific frequency have decreased detection of gap embedded in bands similar to the tinnitus frequency. Reduction of the gating efficiency of the gap produces a larger acoustic startle (reduced GPIAS). The level of GPIAS is measured in baseline condition in a cohort of 6 to 8 adult rats. Tinnitus is induced by an i.p administration of sodium salicylate (250 mg/kg) and GPIAS is measured at […] post-induction to measure the reduction in GPIAS (attesting presence of tinnitus). Rats are treated with H4R antagonists (single i.p. administration) or with the vehicle the same day and GPIAS is measured at different time points according to the PK profile of the compounds Alternatively, tinnitus is induced by a unilateral exposure to a 12 kHz narrow band noise presented at 120-126 dB SPL (the contralateral ear is protected with an ear plug) for 2h. […]
# [2] = system: spiral ganglion neurons (SGNs); test: Whole-cell current-clamp recordings of step-evoked action potentials in dissociated spiral ganglion neurons; format: cell-based, Wistar rats; conditions: for inhibition at 0.1 µM / inhibition at 100 µM: Rattus norvegicus, Neuron, read-out: inhibition of frequency of A.P firing; for inhibition at 0.1 µM / resting membrane potential, difference versus control: 100 nM; for amplitude of the first spike / frequency of spikes and amplitude of the first spike: transient spikers SGNs; for inhibition at 100 µM / amplitude of the first spike: 100 μM; for frequency of spikes and amplitude of the first spike: all concentration tested
# Description: The head of 5-8 days old Wistar rats (CERJ, Le Genest, Berthevin, France) was hemi-sectioned aseptically and the cochlea dissected from the temporal bone. In L15 (Leibovitz) medium (Gibco) medium, the cochlear bone was gently removed using fine forceps to isolate the sensorineural tissue. The spiral ganglion was separated from the organ of Corti just before the habenula perforata, and enzymatically (collagenase 0.75 mg·mL^−1, dispase 1 mg·mL^−1 and DNAse 0.75 mg·mL^−1) dissociated for 15 min at 25° C. After washing thoroughly with a Tyrode's solution (Sigma), a transfer pipette was used to gently dissociate the ganglion neurons in culture medium (DMEM/F-12 medium 1:1, 2% N2 nutrient, 28 mM Glc, 1.5 mM Gln, 15 mM HEPES, 2 μM AraC, 10 ng mL-1 BDNF and 1% penicillin/streptomycin). The spiral ganglion neurons were plated onto culture dishes previously coated with 10 ug·mL-1 laminin (Sigma). These low density cultures were maintained at 37° C. in 5% CO2 for 3 to 5 days prior whole cell patch-clamp experiments.
# Efficacy of H4R antagonist has been tested using two patch clamp technics: whole-cell current-clamp recordings with dissociated spiral ganglion neurons (SGNs) and loose-patch recordings for SGNs in semi-intact cochlea preparations. For these experiments postnatal day (P) 10-14 Wistar rats were used at DIV2-5.
# All experiments were performed using an Axopatch 200B amplifier. Traces were low-pass filtered at 10-20 kHz, and digitized at 100 kHz with a Digidata 1440A board. Data were stored with PClamp10.2 software (Axon Instruments; Molecular Devices Corp., USA) and were analyzed off-line using Clampfit 10.2 (Molecular Devices) and Origin 8 (OriginLab) softwares.
# The recording solution contained (in mM): NaCl 135, HEPES 10, glucose 10, MgCl2 1, KCl 5, and CaCl2 2.5, (pH 7.35). For whole-cell patch clamp recordings, recording glass pipettes (4-6 MΩ) were coated with Wax to reduce pipette capacitance and were filled with (in mM): KCl 135, HEPES 10, glucose 10, NaCl 5, EGTA 5, Mg-ATP 3, GTP-Na 1, pH 7.35. For these solutions a minor 3.7 mV liquid junction potential could be measured but membrane voltages were not corrected for it. The osmolarity of all solutions was adjusted to 300 mOsm/L. The control and test solutions were applied using a multiple capillary perfusion system (flow rate˜500 μl/min). After each application of the tested drug, the cells were washed with control buffer.
# Recordings were performed at room temperature (RT; 22-25° C.). In dissociated neurons, a 150-200 pA DC square current (1 s duration) was applied every 6 s in order to elicit trains of action potentials. The pharmacological tests were conducted only when recordings presented the following criteria: series resistance (<10 MΩ on average) no more than 3 times the pipette resistance, stable resting membrane potential (R.M.P) negative to −40 mV, overshooting action potentials (magnitude >60 mV for the first action potential), stable firing for up to a minute in control condition.
# Two concentrations have been tested: 100 μM and 100 nM.
# Typically, in dissociated SGNs, (FIG. 2A1) small depolarizing current steps (0.1 nA-0.4 nA) evoked two types of action potential discharge: transient (no more than 1-2 spikes-rapidly adapting neurons) and sustained firing (number of spikes increasing linearly above threshold-slowly adapting neurons) (FIG. 2A2). Transient spikers SGNs represented the majority of neurons in our cell cultures (80% versus 20% of sustained spikers neurons).
# [3] = system: spiral ganglion neurons (SGNs) in semi-intact cochlea preparation; test: Loose-patch recordings of spontaneous action potentials in semi-intact cochlea preparation; format: cell-based, Wistar rats; conditions: 100 μM bath application, within two minutes, two experiments
# Description: For this preparation postnatal day (P) 10-14 Wistar rats were used. First steps of the protocol were similar to the cell culture one until the cochlea was freed from the cochlear bone. Cochlear turns (apical and middle) were dissected and isolated in sterile-filtered L-15 (Leibovitz) Medium. Explants were plated upside down (spiral ganglion neurons on top) on 10 μl of growth factor-reduced Matrigel (BD biosciences) and laminin (10 μg/ml)-coated glass coverslips. These preparations were first incubated for 30 min at 37° C. in a 95%/5% 02/CO2 atmosphere and then cultured for 2 to 5 days in vitro in (50%) F12/(50%) DMEM (Invitrogen) supplemented with (2%) N2 nutrient (Fisher Scientific). […]
# All experiments were performed using an Axopatch 200B amplifier. […] Data were stored with PClamp10.2 software (Axon Instruments; Molecular Devices Corp., USA) and were analyzed off-line using Clampfit 10.2 (Molecular Devices) and Origin 8 (OriginLab) softwares.
# The recording solution contained (in mM): NaCl 135, HEPES 10, glucose 10, MgCl2 1, KCl 5, and CaCl2 2.5, (pH 7.35). […] For these solutions a minor 3.7 mV liquid junction potential could be measured but membrane voltages were not corrected for it. […]
# In these semi-intact cochlea preparations, spontaneous discharges of action potential were directly recorded. […] In vitro results were expressed as means±S.E.M. […]
# human H3 receptor = biological target: T1, human H3 receptor (Homo sapiens, UniProt Q9Y5N1); conditions: radioligand binding; cited from earlier work
# T1 construct: expressed in transfected cells; host or cells: SK-N-MC or HEK293 T
# T1 sequence (Q9Y5N1 whole entry): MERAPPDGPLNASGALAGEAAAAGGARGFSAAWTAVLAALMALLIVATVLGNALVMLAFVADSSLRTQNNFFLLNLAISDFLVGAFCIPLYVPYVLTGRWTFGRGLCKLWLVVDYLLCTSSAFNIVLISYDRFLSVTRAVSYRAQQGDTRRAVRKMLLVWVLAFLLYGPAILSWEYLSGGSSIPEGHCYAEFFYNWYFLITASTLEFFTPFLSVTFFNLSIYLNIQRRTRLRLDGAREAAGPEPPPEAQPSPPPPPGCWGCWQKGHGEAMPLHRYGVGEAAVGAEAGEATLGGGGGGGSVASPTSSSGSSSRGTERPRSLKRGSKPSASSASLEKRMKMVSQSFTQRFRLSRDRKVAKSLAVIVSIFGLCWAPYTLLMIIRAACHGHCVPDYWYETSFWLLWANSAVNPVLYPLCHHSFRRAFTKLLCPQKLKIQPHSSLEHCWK
SMILES,GPIAS values [1],inhibition at 0.1 µM ([2]; sustained SGNs),inhibition at 100 µM ([2]; sustained SGNs),"resting membrane potential, difference versus control ([2]; sustained SGNs)",amplitude of the first spike [2],frequency of spikes and amplitude of the first spike [2],spontaneous (synaptically driven) action potential discharge [3],"resting membrane potential, increase versus control ([2]; sustained SGNs, high concentration (100 μM))",Kd (human H3 receptor)
"CN1CCN(C(=O)c2cc3cc(Cl)ccc3[nH]2)CC1 [JNJ7777120, 1-[(5-chloro-1H-indol-2-yl)carbonyl]-4-methylpiperazine]",Increase,21.6 ± 1.7%,69 ± 8%,0.55±0.2 mV,73.3±6.1 mV,unaffected,–,–,–
"CN1CCN(C(=O)c2nc3cc(Cl)ccc3[nH]2)CC1 [JNJ10191584, 1-[(5-chloro-1H-benzimidazol-2-yl)carbonyl]-4-methylpiperazine]",Increase,25.2 ± 2%,46.2 ± 12%,−0.13±0.4 mV,83.7±5.2 mV,unaffected,fully abolished,1.5±1 mV,–
CNCCc1cnc[nH]1 [[^3H]N-a-methyl histamine],–,–,–,–,–,–,–,–,1 nM
